Results as given in paper PMC10387993, “New pyrimidine-N-β-D-glucosides: synthesis, biological evaluation, and molecular docking investigations” (Turkish Journal of Chemistry, 2023).
Values after ≈ are worked out from the molar mass of the structure shown.

What was measured:
Assay type in all cases: cell-based
A549 = assay: cells; details: Homo sapiens; for LC50 (concentration causing 50% net cell loss): A549, read-out: LC50; for GI50 / IC50 / IC (total growth inhibition): A549, MTT; for IC50: read-out: IC50; for IC (total growth inhibition): read-out: TGI
Outline: (§1)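 In this MTT proliferation screen, formazan formed over 4 h was read at 560 nm against a 690 nm reference. Each line was tested at least three times, and the IC50 was taken as the concentration inhibiting half of the cells.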

HT29 = assay: cells; details: Homo sapiens; for LC50 (concentration giving 50% net cell loss relative to time zero): HT-29, read-out: LC50; for GI50 / IC50 / IC (total growth inhibition): HT-29, HT29, MTT; for IC50: read-out: IC50; for IC (total growth inhibition): read-out: TGI
Outline: as §1

HeLa = assay: cells; details: Homo sapiens; for GI50 / IC50 / IC (total growth inhibition): MTT; for IC50: read-out: IC50; for IC (total growth inhibition): read-out: TGI; for LC50 (concentration causing 50% net cell loss): read-out: LC50
Outline: as §1

MCF7 = assay: cells; details: Homo sapiens; for LC50 (concentration causing 50% net cell loss relative to time zero): MCF7, read-out: LC50; for GI50 / IC50 / IC (total growth inhibition): MCF7, MTT; for IC50: read-out: IC50; for IC (total growth inhibition): read-out: TGI
Outline: as §1

[1] = LDH cytotoxic activity assay, C6; details: rat, C6 glioma cells; for cytotoxicity at 24 h, 25 μg/mL: C6, 25 μg/mL; for cytotoxicity at 24 h, 50 μg/mL: C6, 50 μg/mL; for cytotoxicity at 24 h, 75 μg/mL: C6, 75 μg/mL; for cytotoxicity at 24 h, 100 μg/mL: C6, 100 μg/mL
Method: The cell lines were cultured in a cell medium (Dulbecco’s modified eagle’s or RPMI 1640) enriched with 10% (v/v) fetal bovine serum and 2% (v/v) Penicillin-Streptomycin (10,000 U/mL). First, old medium was removed out of the flask when the cells reached approximately 80% confluence. Next, cells were taken from the flasks surface using trypsin-EDTA solution and then subjected to centrifugation. Following, the cell pellet was suspended with fresh media and was inoculated into wells.
Approximately 5 × 10^3 cells in 100 μL were placed into 96-well plates as triplicates and treated with 25, 50, 75, and 100 μg/mL concentrations of test compounds at 37 °C with 5% CO2 for 24 h. LDH activity was obtained by determining absorbance at 492–630 nm using a microplate reader.

GI50 (A549) [µg/mL]	IC50 (A549) [µg/mL]	GI50 (HT29) [µg/mL]	IC50 (HT29) [µg/mL]	GI50 (HeLa) [µg/mL]	IC50 (HeLa) [µg/mL]	GI50 (MCF7) [µg/mL]	IC50 (MCF7) [µg/mL]	Compound	LC50 (concentration causing 50% net cell loss) (A549) [µg/mL]	IC (total growth inhibition) (A549) [µg/mL]	LC50 (concentration giving 50% net cell loss relative to time zero) (HT29) [µg/mL]	IC (total growth inhibition) (HT29) [µg/mL]	IC (total growth inhibition) (HeLa) [µg/mL]	LC50 (concentration causing 50% net cell loss) (HeLa) [µg/mL]	LC50 (concentration causing 50% net cell loss relative to time zero) (MCF7) [µg/mL]	IC (total growth inhibition) (MCF7) [µg/mL]	cytotoxicity at 24 h, 25 μg/mL [1] [%]	cytotoxicity at 24 h, 50 μg/mL [1] [%]	cytotoxicity at 24 h, 75 μg/mL [1] [%]	cytotoxicity at 24 h, 100 μg/mL [1] [%]
430 (≈ 726 µM)	> 500	2.28 (≈ 3.85 µM)	> 500	> 500	> 500	1.95 (≈ 3.29 µM)	> 500	CC(=O)OC[C@H]1O[C@@H](Nc2nc(-c3cccnc3)cc(-c3cccc(C)c3)n2)[C@H](OC(C)=O)[C@@H](OC(C)=O)[C@@H]1OC(C)=O [Compound 14, 2,3,4,6-tetra-O-acetyl-N-[4-(3-methylphenyl)-6-pyridin-3-ylpyrimidin-2-yl]-β-D-glucopyranosylamine]	> 500	> 500	> 500	> 500	> 500	> 500	> 500	> 500	18.4	35.3	70.2	86.7
67.8 (≈ 160 µM)	> 500	3.41 (≈ 8.03 µM)	198 (≈ 466 µM)	10.5 (≈ 24.8 µM)	54.4 (≈ 128 µM)	1.81 (≈ 4.26 µM)	> 500	Cc1ccccc1-c1cc(-c2ccccn2)nc(N[C@@H]2O[C@H](CO)[C@@H](O)[C@H](O)[C@H]2O)n1 [Compound 1, N-[4-(2-methylphenyl)-6-pyridin-2-ylpyrimidin-2-yl]-β-D-glucopyranosylamine]	> 500	> 500	> 500	> 500	35.1	218 (≈ 514 µM)	> 500	> 500	28.7	28.7	72.1	97.8
> 500	> 500	2.1 (≈ 3.54 µM)	71.1 (≈ 120 µM)	> 500	> 500	1.66 (≈ 2.8 µM)	> 500	CC(=O)OC[C@H]1O[C@@H](Nc2nc(-c3ccccn3)cc(-c3ccccc3C)n2)[C@H](OC(C)=O)[C@@H](OC(C)=O)[C@@H]1OC(C)=O [Compound 10, 2,3,4,6-tetra-O-acetyl-N-[4-(2-methylphenyl)-6-pyridin-2-ylpyrimidin-2-yl]-β-D-glucopyranosylamine]	> 500	> 500	> 500	> 500	> 500	> 500	> 500	> 500	22.8	54.3	77.1	93.5
6.49 (≈ 15.3 µM)	> 500	2.22 (≈ 5.23 µM)	78.4 (≈ 185 µM)	> 500	> 500	2.23 (≈ 5.25 µM)	> 500	Cc1ccccc1-c1cc(-c2ccncc2)nc(N[C@@H]2O[C@H](CO)[C@@H](O)[C@H](O)[C@H]2O)n1 [Compound 3, N-[4-(2-methylphenyl)-6-pyridin-4-ylpyrimidin-2-yl]-β-D-glucopyranosylamine]	> 500	> 500	> 500	230	> 500	> 500	> 500	> 500	25.3	32.1	74	99.7
